Experimental findings from patent publication US7897627B2, “Heteroaryl derivatives as orexin receptor antagonists” (Hoffmann-La Roche Inc., priority 2007, dated 2011) are described below.

One may read the Kb as the equilibrium dissociation constant of an antagonist, usually derived from a functional assay.

This assay addresses T1, human orexin-2 (hOX2) receptor (Homo sapiens, UniProt O43614).
T1 construct: expressed in transfected cells
T1 sequence (O43614 1-444): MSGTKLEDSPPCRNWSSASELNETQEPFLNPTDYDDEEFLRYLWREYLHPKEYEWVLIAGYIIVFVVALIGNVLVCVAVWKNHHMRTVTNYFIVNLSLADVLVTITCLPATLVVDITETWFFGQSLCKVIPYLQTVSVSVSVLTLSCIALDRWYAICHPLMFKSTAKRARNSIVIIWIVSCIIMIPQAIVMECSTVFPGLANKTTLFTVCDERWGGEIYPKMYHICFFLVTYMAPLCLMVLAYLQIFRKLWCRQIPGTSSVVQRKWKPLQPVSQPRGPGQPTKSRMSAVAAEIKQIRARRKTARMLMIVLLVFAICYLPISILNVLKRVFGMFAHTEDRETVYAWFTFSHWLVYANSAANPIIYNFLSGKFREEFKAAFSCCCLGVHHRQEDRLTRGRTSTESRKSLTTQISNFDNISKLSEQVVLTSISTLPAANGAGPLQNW
As to the kind of experiment: Intracellular Ca2+ mobilization assay (FLIPR), CHO(dHFr-) cells expressing hOX2, orexin-A as agonist. It is filed as cell-based. The conditions noted are these: antagonist Kb=IC50/(1+[A]/EC50); orexin-A at EC80; CHO(dHFr-)-OX2R cells; antagonist applied 25 min before agonist. How it is done: Intracellular Ca^2+ Mobilization Assay
The Chinese Hamster Ovary (dHFr-) mutant cell line stably expressing human orexin-1 (hOX1) or human orexin-2 (hOX2) receptors were maintained in Dulbecco's Modified Eagle Medium (1×) with GlutaMax™1, 4500 mg/L D-Glucose and Sodium Pyruvate (Catalog No. 31966-021, Invitrogen, Carlsbad, Calif.), 5% dialyzed fetal calf serum (Catalog No. 26400-044), 100 μg/ml penicillin and 100 μg/ml streptomycin. The cells were seeded at 5×10^4 cells/well in the poly-D-lysine treated, 96-well, black/clear-bottomed plates (Catalog No. BD356640, BD Biosciences, Palo Alto, Calif.). 24 h later, the cells were loaded for 1 h at 37° C. with 4 μM Flou-4 acetoxymethyl ester (Catalog No. F-14202, Molecular Probes, Eugene, Oreg.) in FLIPR buffer (1×HBSS, 20 mM HEPES, 2.5 mM Probenecid). Hanks' Balanced Salt Solution (HBSS) (10×) (catalog No. 14065-049) and HEPES (1M) (catalog No. 15630-056) were purchased from Invitrogen, Carlsbad, Calif. Probenecid (250 mM) (catalog No. P8761) was from Sigma, Buchs, Switzerland. The cells were washed five times with FLIPR buffer to remove excess dye and intracellular calcium mobilization, [Ca^2−]i were measured using a Fluorometric Imaging Plate Reader (FLIPR-96, Molecular Devices, Menlo Park, Calif.) as described previously (Malherbe et al., Mol. Pharmacol., 64, 823-832, 2003). Orexin A (catalog No. 1455, Toris Cookson Ltd, Bristol, UK) was used as agonist. Orexin A ([…] stock solution in DMSO) was diluted in FLIPR buffer+0.1% BSA. The EC50 and EC80 values of orexin-A were measured daily from standard agonist concentration-response curves in CHO(dHFr-)-OX1R and -OX2R cell lines. All compounds were dissolved in 100% DMSO. Inhibition curves were determined by addition of 11 concentrations (0.0001-10 μM) of inhibitory compounds and using EC80 value of orexin-A as agonist (a concentration which gave 80% of max agonist response, determined daily). The antagonists were applied 25 min (incubation at 37° C.) before the application of the agonist. Responses were measured as peak increase in fluorescence minus basal, normalized to the maximal stimulatory effect induced by EC80 value of orexin-A or orexin-B. Inhibition curves were fitted according to the Hill equation: y=100/(1+(x/IC50)^nH), where nH=slope factor using Excel-fit 4 software (Microsoft).
Kb values were calculated according to the following equation Kb=IC50/(1+[A]/EC50) where A is the concentration of agonist added which is very close to agonist EC80 value, and IC50 and EC50 values were derived from the antagonist inhibition and orexin-A or B agonist curves, respectively.
A general note: Calcium assays in cells follow changes in intracellular calcium, usually with a dye or a luminescent sensor.
`COc1cccc(OC)c1C(=O)N1CC[C@@H](Nc2cnc3cc(Cl)ccc3n2)C1` [Example 41, [(R)-3-(6-Chloro-quinoxalin-2-ylamino)-pyrrolidin-1-yl]-(2,6-dimethoxy-phenyl)-methanone] showed a Kb of 0.0302 µM. Then `Cc1ccc(C(F)(F)F)c(C(=O)N2CC[C@@H](Nc3nc4ccc(F)c(F)c4o3)C2)c1` [Example 150, [(R)-3-(6,7-Difluoro-benzooxazol-2-ylamino)-pyrrolidin-1-yl]-(5-methyl-2-trifluoromethyl-phenyl)-methanone], with 0.0136 µM; and `O=C(c1ccccc1-c1ccco1)N1CC[C@@H](Nc2nc3ccc(Cl)cc3o2)C1` [Example 57, [(R)-3-(6-Chloro-benzooxazol-2-ylamino)-pyrrolidin-1-yl]-(2-furan-2-yl-phenyl)-methanone], with 0.0025 µM.

As for `Cc1nc(C(=O)N2CC[C@@H](Nc3cnc4cc(F)c(F)cc4n3)C2)c(-c2ccccc2)s1` [Example 172, [(R)-3-(6,7-Difluoro-quinoxalin-2-ylamino)-pyrrolidin-1-yl]-(2-methyl-5-phenyl-thiazol-4-yl)-methanone], the antagonist dissociation constant (Kb) is 0.0032 µM. Then `Cc1ccc(C(F)(F)F)c(C(=O)N2CC[C@@H](Nc3cnc4cc(Cl)c(C)cc4n3)C2)c1` [Example 213], with 0.0371 µM; and `COc1cccc(OC)c1C(=O)N1CC[C@@H](Nc2nc3ccc(F)c(F)c3o2)C1` [Example 93, [(R)-3-(6,7-Difluoro-benzooxazol-2-ylamino)-pyrrolidin-1-yl]-(2,6-dimethoxy-phenyl)-methanone], with 0.0164 µM; and `Cc1noc(-c2ccccc2C(=O)N2CC[C@@H](Nc3nc4ccc(F)cc4s3)C2)n1` [Example 117, [(R)-3-(6-Fluoro-benzothiazol-2-ylamino)-pyrrolidin-1-yl]-[2-(3-methyl-[1,2,4]oxadiazol-5-yl)-phenyl]-methanone], with 0.0197 µM. Turning to `Cc1ccc(C(F)(F)F)c(C(=O)N2CC[C@@H](Nc3cnc4cc(F)ccc4n3)C2)c1` [Example 207], the Kb stood at 0.0046 µM.

The compound `O=C(c1ccccc1OC(F)(F)C(F)F)N1CC[C@@H](Nc2nc3ccc(F)c(F)c3o2)C1` [Example 149, [(R)-3-(6,7-Difluoro-benzooxazol-2-ylamino)-pyrrolidin-1-yl]-[2-(1,1,2,2-tetrafluoro-ethoxy)-phenyl]-methanone] registered a Kb of 0.0072 µM.

The compound `Cc1ccc(C(F)(F)F)c(C(=O)N2CC[C@@H](Nc3cnc4cc(Cl)ccc4n3)C2)c1` [Example 176, [(R)-3-(6-Chloro-quinoxalin-2-ylamino)-pyrrolidin-1-yl]-(5-methyl-2-trifluoromethyl-phenyl)-methanone] registered a Kb of 0.014 µM. Then `COc1cccc(OC)c1C(=O)N1CC[C@@H](Nc2cnc3cc(F)ccc3n2)C1` [Example 110, (2,6-Dimethoxy-phenyl)-[(R)-3-(6-fluoro-quinoxalin-2-ylamino)-pyrrolidin-1-yl]-methanone], with 0.0319 µM; and `Cc1noc(-c2ccccc2C(=O)N2CC[C@@H](Nc3nc4ccc(Cl)cc4o3)C2)n1` [Example 69, [(R)-3-(6-Chloro-benzooxazol-2-ylamino)-pyrrolidin-1-yl]-[2-(3-methyl-[1,2,4]oxadiazol-5-yl)-phenyl]-methanone], with 0.0155 µM; and `COc1cccc(OC)c1C(=O)N1CC[C@@H](Nc2nc3c(Cl)cccc3s2)C1` [Example 43, [(R)-3-(4-Chloro-benzothiazol-2-ylamino)-pyrrolidin-1-yl]-(2,6-dimethoxy-phenyl)-methanone], with 0.0015 µM. Then `O=C(c1ccccc1-c1cccs1)N1CC[C@@H](Nc2nc3ccc(Cl)cc3o2)C1` [Example 70, [(R)-3-(6-Chloro-benzooxazol-2-ylamino)-pyrrolidin-1-yl]-(2-thiophen-2-yl-phenyl)-methanone], with 0.0024 µM; and `O=C(c1ccccc1C(F)(F)F)N1CC[C@@H](Nc2nc3ccc(F)cc3s2)C1` [Example 112, [(R)-3-(6-Fluoro-benzothiazol-2-ylamino)-pyrrolidin-1-yl]-(2-trifluoromethyl-phenyl)-methanone], with 0.0344 µM; and `Cc1onc(-c2ccccc2)c1C(=O)N1CC[C@@H](Nc2nc3ccc(F)c(F)c3o2)C1` [Example 151, [(R)-3-(6,7-Difluoro-benzooxazol-2-ylamino)-pyrrolidin-1-yl]-(5-methyl-3-phenyl-isoxazol-4-yl)-methanone], with 0.0355 µM. On to `Cc1cccc(Cl)c1C(=O)N1CC[C@@H](Nc2nc3ccc(Cl)cc3o2)C1` [Example 35, [(R)-3-(6-Chloro-benzooxazol-2-ylamino)-pyrrolidin-1-yl]-(2-chloro-6-methyl-phenyl)-methanone], for which the Kb worked out at 0.045 µM. For `COc1cccc(OC)c1C(=O)N1CC[C@@H](Nc2nc3ccc(Cl)cc3s2)C1` [Example 25, [(R)-3-(6-Chloro-benzothiazol-2-ylamino)-pyrrolidin-1-yl]-(2,6-dimethoxy-phenyl)-methanone], the Kb is 0.0163 µM. `O=C(c1ccccc1OC(F)(F)F)N1CC[C@@H](Nc2cnc3cc(F)c(F)cc3n2)C1` [Example 166, [(R)-3-(6,7-Difluoro-quinoxalin-2-ylamino)-pyrrolidin-1-yl]-(2-trifluoromethoxy-phenyl)-methanone] had a Kb of 0.009 µM. Then `COc1cccc(OC)c1C(=O)N1CC[C@@H](Nc2nc3ccc(Cl)cc3o2)C1` [Example 5, [(R)-3-(6-Chloro-benzooxazol-2-ylamino)-pyrrolidin-1-yl]-(2,6-dimethoxy-phenyl)-methanone], with 0.0242 µM. Then `O=C(c1ccccc1OC(F)(F)C(F)F)N1CC[C@@H](Nc2nc3ccc(F)cc3s2)C1` [Example 114, [(R)-3-(6-Fluoro-benzothiazol-2-ylamino)-pyrrolidin-1-yl]-[2-(1,1,2,2-tetrafluoro-ethoxy)-phenyl]-methanone], with 0.002 µM; and `O=C(c1ccccc1OC(F)(F)F)N1CC[C@@H](Nc2nc3ccc(F)cc3o2)C1` [Example 157, [(R)-3-(6-Fluoro-benzooxazol-2-ylamino)-pyrrolidin-1-yl]-(2-trifluoromethoxy-phenyl)-methanone], with 0.0247 µM. `Cc1nc(C(=O)N2CC[C@@H](Nc3cnc4ccccc4n3)C2)c(-c2ccccc2)s1` [Example 189, (2-Methyl-5-phenyl-thiazol-4-yl)-[(R)-3-(quinoxalin-2-ylamino)-pyrrolidin-1-yl]-methanone] had a Kb of 0.028 µM. Turning to `O=C(c1ccccc1OC(F)(F)C(F)F)N1CC[C@@H](Nc2nc3cccc(F)c3o2)C1` [Example 141, [(R)-3-(7-Fluoro-benzooxazol-2-ylamino)-pyrrolidin-1-yl]-[2-(1,1,2,2-tetrafluoro-ethoxy)-phenyl]-methanone], the Kb worked out at 0.0138 µM. Consider `Cc1onc(-c2ccccc2)c1C(=O)N1CC[C@@H](Nc2cnc3cc(F)c(F)cc3n2)C1` [Example 168, [(R)-3-(6,7-Difluoro-quinoxalin-2-ylamino)-pyrrolidin-1-yl]-(5-methyl-3-phenyl-isoxazol-4-yl)-methanone], for which the Kb came to 0.0038 µM. Then `O=C(c1cnoc1-c1ccccc1)N1CC[C@@H](Nc2nc3ccc(Cl)cc3o2)C1` [Example 61, [(R)-3-(6-Chloro-benzooxazol-2-ylamino)-pyrrolidin-1-yl]-(5-phenyl-isoxazol-4-yl)-methanone], with 0.0054 µM. Then `Cc1ccc(Cl)c(C(=O)N2CC[C@@H](Nc3nc4ccc(F)cc4s3)C2)c1` [Example 118, (2-Chloro-5-methyl-phenyl)-[(R)-3-(6-fluoro-benzothiazol-2-ylamino)-pyrrolidin-1-yl]-methanone], with 0.039 µM.
